Source: US20260273007A1, “FEED ADDITIVE FOR IMPROVING PERFORMANCE OF FARMING ANIMALS” (Nutreco IP Assets B.V., priority 2023, published 2026)

Experiments:
E. maxima = E. maxima infection of chickens: performance and fecal oocyst shedding (Example 8); type: in vivo; conditions: E. maxima-infected chickens, 90 mg/kg feed of monensin
Description: Newly hatched chickens from Longnecker's hatchery, Elizabethtown, PA were housed in a Petersime brooder units and provided with feed and water ad libitum. All chickens were weighed and allocated to a cage. Per treatment, 60 chickens (5 birds/cage=12 replication) were used. Initial body weight was the same among treatments. For E. maxima infection freshly propagated E. maxima (ARS strain) were used to infect the birds. On d 14 after hatch, the birds were infected with 10,000 E. maxima oocysts through oral gavage. The experimental treatments were the following: [1]=Negative control (NC), non infected and untreated chicken; [2]=Positive control (PC)=[1]+infection; […] [4]=[2]+55 ppm of dried Glycyrrhiza glabra leaves; [5]=[2]+160 ppm of dried Glycyrrhiza glabra leaves. Monensin is the current standard used to control coccidiosis. […] Oocyst shedding: Faeces from each group was collected separately from 6-8 days post infection (dpi) for coccidiosis. To count coccidia oocysts, various dilutions were made initially to determine the optimum dilutions for enumeration of oocysts for each sample. Oocysts were counted microscopically using a McMaster counting chamber using a sodium chloride flotation method. The total number of oocysts shed per chicken were calculated using the formula: total oocysts/bird=(oocyst count×dilution factor×fecal sample volume/counting chamber volume)/number of birds per cage.

[1] = tested on: Alpha mouse liver 12 cells (AML12); type: cell-based

| Compound | ADFI d 15 to 19 (0 to 4 dpi) (E. maxima) [g] | ADFI d 15 to 21 (0 to 6 dpi) (E. maxima) [g] | ADFI d 15 to 23 (0 to 8 dpi) (E. maxima) [g] | ADG d 15 to 19 (0 to 4 dpi) (E. maxima) [g] | ADG d 15 to 21 (0 to 6 dpi) (E. maxima) [g] | ADG d 15 to 23 (0 to 8 dpi) (E. maxima) [g] | BW d 19 (4 dpi) (E. maxima) [g] | BW d 21 (6 dpi) (E. maxima) | BW d 23 (8 dpi) (E. maxima) | FCR d 15 to 19 (0 to 4 dpi) (E. maxima) | FCR d 15 to 21 (0 to 6 dpi) (E. maxima) | FCR d 15 to 23 (0 to 8 dpi) (E. maxima) | Lesion score (E. maxima) | Number of oocysts (fecal oocyst shedding, FIG. 2) (E. maxima; faeces 6-8 dpi) | Cell viability (%) [1] [%] |
| --- | --- | --- | --- | --- | --- | --- | --- | --- | --- | --- | --- | --- | --- | --- | --- |
| CC[C@@]1([C@@H]2O[C@@H]([C@H]3O[C@@](O)(CO)[C@H](C)C[C@@H]3C)C[C@@H]2C)CC[C@H]([C@]2(C)CC[C@]3(C[C@H](O)[C@@H](C)[C@@H]([C@@H](C)[C@@H](OC)[C@H](C)C(=O)O)O3)O2)O1 [MO, monensin] | 90 | 93.5 | 94.3 | 76.3 | 72.9 | 79.3 | 890 | 1,023 g | 1,220 g | 1.191 | 1.31 | 1.21 | reduced | reduced | – |
| Aflatoxin B1 | – | – | – | – | – | – | – | – | – | – | – | – | – | – | 51.8 |
